Results: patent US20140200241A1, “PRODRUGS FOR TREATING MICROBIAL INFECTIONS” (Northeastern University, priority 2011, published 2014)
In brackets after ≈: the same amount, converted by molar mass. Where two headings read alike, the source gives them in different places.

Columns and labels:
[1] = system: Acinetobacter baumannii; assay: microbe, parasite or virus in culture
[2] = system: Enterococcus faecalis; assay: microbe, parasite or virus in culture
[3] = system: E. coli ΔnfsA/ΔnfnB; assay: microbe, parasite or virus in culture; conditions: Escherichia coli
[4] = system: Enterococcus faecalis; conditions: human
[5] = system: HepG2; conditions: human
[6] = system: Caco-2; assay: cells; conditions: Homo sapiens
[7] = system: IMR90; assay: cells; conditions: Homo sapiens, IMR-90
[8] = system: IMR90; conditions: human
[9] = system: Yersinia pestis; conditions: human fibroblast IC50 vs MIC, Y. pestis
[10] = system: E. coli ΔnfsA; assay: microbe, parasite or virus in culture; conditions: Escherichia coli
[11] = system: Escherichia coli; conditions: human
[12] = system: HepG2; assay: cells; conditions: Homo sapiens
[13] = system: Staphylococcus aureus; assay: microbe, parasite or virus in culture; conditions: for MIC: S. aureus
[14] = system: E. coli ΔnfnB; assay: microbe, parasite or virus in culture; conditions: Escherichia coli
[15] = system: Pseudomonas aeruginosa; assay: microbe, parasite or virus in culture
[16] = system: Pseudomonas aeruginosa; conditions: human
[17] = system: Escherichia coli; assay: microbe, parasite or virus in culture
[18] = system: Yersinia pestis; assay: microbe, parasite or virus in culture; conditions: for MIC: Y. pestis (FL2, PD30: KIM)
[19] = system: Salmonella typhimurium; assay: MIC against Salmonella typhimurium; format: cell-based; conditions: Salmonella enterica
[20] = system: Acinetobacter baumannii; conditions: human
[21] = system: Caco-2; conditions: human
[22] = system: E. coli ΔnfsA/ΔnfnB; conditions: double mutant lacking both major nitroreductases vs wild type
[23] = system: Staphylococcus aureus; conditions: for TI: human
[24] = system: Sheep's red blood cells
[25] = system: Fadu; conditions: human
[26] = system: Bacillus anthracis; assay: microbe, parasite or virus in culture
[27] = system: Fadu; assay: cells; conditions: Homo sapiens
[28] = in vitro; conditions: human
[29] = system: MRSA; assay: MRSA infection in C. elegans; format: in vivo
[30] = system: E. coli long-chromosomal-deletion mutants; conditions: 50 μg/ml of prodrug
[31] = system: Francisella tularensis; assay: microbe, parasite or virus in culture; conditions: for MIC: F. tularensis SchuS4
[32] = system: Francisella tularensis; conditions: human fibroblast IC50 vs MIC, F. tularensis
[33] = system: Bacillus anthracis; conditions: human fibroblast IC50 vs MIC, B. anthracis
[34] = system: S. aureus; conditions: S. aureus mouse infection model; cited from earlier work
[35] = system: E. coli ΔargC; assay: microbe, parasite or virus in culture; conditions: Escherichia coli
[36] = system: E. coli ΔybgJ; assay: microbe, parasite or virus in culture; conditions: Escherichia coli

SMILES | MIC [1] | MIC [2] | TI [4] | TI [5] | IC50 [7] | TI [8] | TI [9] | TI [11] | IC50 [12] | MIC [13] | MIC [15] | TI [16] | MIC ([17]; read-out: MIC Against E. coli) | MIC [18] | TI [20] | TI [25] | MBC [26] | MIC [26] | IC50 [27] | IC50 [28] | other results
O=[N+]([O-])c1ccc(/C=[N+](\[O-])CCO)o1 [FL1] | 12.5 µg/mL (≈ 62.5 µM) | 3.12 µg/mL (≈ 15.6 µM) | 80 | 40 | 250 µg/mL (≈ 1250 µM) | 320 | ≧320 | 320 | 31.2 µg/mL (≈ 156 µM) | 1.56 µg/mL (≈ 7.79 µM) | 25 µg/mL (≈ 125 µM) | 10 | 0.78 µg/mL (≈ 3.9 µM) | ≤ 0.78 µg/mL | 20 | 80 | 0.78 µg/mL (≈ 3.9 µM) | 0.35 µg/mL (≈ 1.75 µM) | 62.5 µg/mL (≈ 312 µM) | 250 µg/mL (≈ 1250 µM) | MIC [3]: 12.5 µg/mL (≈ 62.5 µM); IC50 [6]: 200 µg/mL (≈ 999 µM); MIC [10]: 2.5 µg/mL (≈ 12.5 µM); MBC [13]: 3.25 µg/mL (≈ 16.2 µM); MIC [14]: 0.16 µg/mL (≈ 0.799 µM); MBC [17]: 0.78 µg/mL (≈ 3.9 µM); MIC [17]: 0.78 µg/mL (≈ 3.9 µM); MIC [19]: 5 µg/mL (≈ 25 µM); TI [21]: 256; decrease of activity [22]: 16 fold; TI [23]: 160; Hemolytic activity [24]: no hemolytic activity; in vivo efficacy [29]: in vivo efficacy against a MRSA infection in C. elegans
Oc1c(Br)cc(Br)c2cccnc12 [FL2] | 6.25 µg/mL (≈ 20.6 µM) | 3.25 µg/mL (≈ 10.7 µM) | – | 42 | 100 µg/mL (≈ 330 µM) | 67 | 67 | 67 | 62.5 µg/mL (≈ 206 µM) | ≤ 1.5 µg/mL | > 50 µg/mL | >2 | 1.5 µg/mL (≈ 4.95 µM) | 1.5 µg/mL (≈ 4.95 µM) | 16 | 21 | > 50 µg/mL | 1.5 µg/mL (≈ 4.95 µM) | 31.2 µg/mL (≈ 103 µM) | 100 µg/mL (≈ 330 µM) | Resistance (growth in presence of prodrug) [30]: observed in a large number of deletions; MBC [31]: 1.5 to 3.12 µg/mL (≈ 4.95 to 10.3 µM); MIC [31]: 0.097 µg/mL (≈ 0.32 µM); TI [32]: 1,031; MBC [17]: 3 µg/mL (≈ 9.9 µM); MBC [18]: 12.5 to 25 µg/mL (≈ 41.3 to 82.5 µM); TI [33]: 67
COc1ccccc1NC(=O)Nc1ccc2ccccc2c1 [INF271] | – | – | – | – | – | – | – | – | – | – | – | – | – | – | – | – | – | – | – | – | efficacy [34]: shows efficacy in a S. aureus mouse infection model
O=C(/C=C(\O)C(F)(F)F)c1ccc(Cl)cc1 [PD30] | 12.5 µg/mL (≈ 49.9 µM) | 6.25 µg/mL (≈ 24.9 µM) | 40 | 10 | 250 µg/mL (≈ 998 µM) | 40 | 320 | 40 | 62.5 µg/mL (≈ 249 µM) | 3.12 µg/mL (≈ 12.5 µM) | > 50 µg/mL | >2 | 6.25 µg/mL (≈ 24.9 µM) | 0.78 µg/mL (≈ 3.11 µM) | 20 | 10 | > 50 µg/mL | 0.78 µg/mL (≈ 3.11 µM) | 62.5 µg/mL (≈ 249 µM) | 250 µg/mL (≈ 998 µM) | MIC [35]: 50 µg/mL (≈ 200 µM); IC50 [6]: 200 µg/mL (≈ 798 µM); MBC [31]: 0.78 to 1.5 µg/mL (≈ 3.11 to 5.99 µM); MIC [31]: 0.195 µg/mL (≈ 0.778 µM); TI [32]: 1,282; MBC [18]: 3.12 to 6.25 µg/mL (≈ 12.4 to 24.9 µM); TI [21]: 32; MIC ([23]; S. aureus): 3.12 µg/mL (≈ 12.4 µM); TI [23]: 80; TI [33]: 320; Hemolytic activity [24]: no hemolytic activity; MIC [36]: 100 µg/mL (≈ 399 µM)
